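Five concentrations, 48 hours, 96-well plates. Abbreviation: GI50, concentration required for 50% inhibition of growth.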 Active and inactive are the calls of the source. Rule as the data show it: active = GI50 up to about 1.1 µM and inactive = higher.
How the values were obtained:
Assay in all cases: NCI anticancer screen, dose series, 48 h
BT-549 = system: BT-549
CAKI-1 = system: CAKI-1
COLO 205 = system: COLO 205
DU-145 = system: DU-145
HCC 2998 = system: HCC 2998
HOP-62 = system: HOP-62
KM12 = system: KM12
MDA-MB-231 = system: MDA-MB-231
MDA-MB-435 = system: MDA-MB-435
MOLT-4 = system: MOLT-4
NCI-H460 = system: NCI-H460
PC-3 = system: PC-3
SK-OV-3 = system: SK-OV-3
SNB-19 = system: SNB-19
SR = system: SR
TK-10 = system: TK-10
UACC-257 = system: UACC-257
UO-31 = system: UO-31
OVCAR-3 = system: OVCAR-3
SF-539 = system: SF-539

Q: What does the source list for `CC(C)(C)C1=NC(=S)SC2=NC(=O)C3(NN21)c1ccccc1-c1ccccc13`?
A: GI50 (BT-549): 6.35 µM (inactive); GI50 (CAKI-1): > 10 µM (inactive); GI50 (COLO 205): > 10 µM (inactive); GI50 (DU-145): > 10 µM (inactive); GI50 (HCC 2998): > 10 µM (inactive); GI50 (HOP-62): > 10 µM (inactive); GI50 (KM12): > 10 µM (inactive); GI50 (MDA-MB-231): 9.46 µM (inactive); GI50 (MDA-MB-435): > 10 µM (inactive); GI50 (MOLT-4): 3.45 µM (inactive); GI50 (NCI-H460): 4.61 µM (inactive); GI50 (PC-3): 7.21 µM (inactive); GI50 (SK-OV-3): > 10 µM (inactive); GI50 (SNB-19): > 10 µM (inactive); GI50 (SR): 4.59 µM (inactive); GI50 (TK-10): > 10 µM (inactive); GI50 (UACC-257): > 10 µM (inactive); GI50 (UO-31): 6.58 µM (inactive)

Q: Which results are given for `Cc1nc(-c2cccnc2)sc1C(=O)CC(=O)C(=O)Nc1cccc(NC(=O)C(=O)CC(=O)c2sc(-c3cccnc3)nc2C)n1`?
A: GI50 (BT-549): > 100 µM (inactive); GI50 (CAKI-1): > 100 µM (inactive); GI50 (COLO 205): > 100 µM (inactive); GI50 (DU-145): > 100 µM (inactive); GI50 (HCC 2998): > 100 µM (inactive); GI50 (KM12): > 100 µM (inactive); GI50 (MDA-MB-231): > 100 µM (inactive); GI50 (MDA-MB-435): > 100 µM (inactive); GI50 (MOLT-4): > 100 µM (inactive); GI50 (NCI-H460): > 100 µM (inactive); GI50 (OVCAR-3): > 100 µM (inactive); GI50 (PC-3): > 100 µM (inactive); GI50 (SF-539): > 100 µM (inactive); GI50 (SK-OV-3): > 100 µM (inactive); GI50 (SNB-19): > 100 µM (inactive); GI50 (SR): > 100 µM (inactive); GI50 (UACC-257): > 100 µM (inactive); GI50 (UO-31): > 100 µM (inactive)

Q: For `Cc1cc(S(=O)(=O)NC2=NCCCN2)c(S)cc1Cl`, which GI50 (BT-549) is on record?
A: 0.721 µM (active)

Q: What about the GI50 (CAKI-1) of the same compound?
A: 16.8 µM (inactive)

Q: What about the GI50 (COLO 205) of the same compound?
A: 40.4 µM (inactive)

Q: What about the GI50 (DU-145) of the same compound?
A: 72.4 µM (inactive)

Q: And the GI50 (HCC 2998)?
A: 36.1 µM (inactive)

Q: What about the GI50 (HOP-62) of the same compound?
A: 54.3 µM (inactive)

Q: What about the GI50 (KM12) of the same compound?
A: 37.8 µM (inactive)

Q: And the GI50 (MDA-MB-231)?
A: 72.9 µM (inactive)

Q: And the GI50 (MDA-MB-435)?
A: 18.3 µM (inactive)

Q: What about the GI50 (NCI-H460) of the same compound?
A: 39.3 µM (inactive)

Q: And the GI50 (OVCAR-3)?
A: 31.6 µM (inactive)

Q: What about the GI50 (PC-3) of the same compound?
A: 58.5 µM (inactive)

Q: And the GI50 (SF-539)?
A: 57.8 µM (inactive)

Q: What about the GI50 (SK-OV-3) of the same compound?
A: 36.6 µM (inactive)

Q: What about the GI50 (SNB-19) of the same compound?
A: 40.6 µM (inactive)

Q: What about the GI50 (SR) of the same compound?
A: 21.2 µM (inactive)

Q: What about the GI50 (TK-10) of the same compound?
A: 26.9 µM (inactive)

Q: What about the GI50 (UACC-257) of the same compound?
A: 37.5 µM (inactive)

Q: And the GI50 (UO-31)?
A: 58.9 µM (inactive)

Q: What does the source list for `COc1cccc(-c2cc(=O)c3ccccc3o2)c1N`?
A: GI50 (BT-549): > 100 µM (inactive); GI50 (CAKI-1): > 100 µM (inactive); GI50 (COLO 205): 9.93 µM (inactive); GI50 (DU-145): > 100 µM (inactive); GI50 (HCC 2998): 28.2 µM (inactive); GI50 (HOP-62): 18.3 µM (inactive); GI50 (KM12): > 100 µM (inactive); GI50 (MDA-MB-231): 26.9 µM (inactive); GI50 (MDA-MB-435): 23 µM (inactive); GI50 (MOLT-4): > 100 µM (inactive); GI50 (NCI-H460): > 59 µM (inactive); GI50 (OVCAR-3): > 100 µM (inactive); GI50 (PC-3): > 23.6 µM (inactive); GI50 (SF-539): 63.5 µM (inactive); GI50 (SK-OV-3): 15 µM (inactive); GI50 (SNB-19): 51.9 µM (inactive); GI50 (SR): > 100 µM (inactive); GI50 (TK-10): > 100 µM (inactive); GI50 (UACC-257): 36.6 µM (inactive); GI50 (UO-31): 36.3 µM (inactive)

Q: Which GI50 (BT-549) does the source give for `CCOC(=O)CC1(O)CCCCC1(Sc1ccc(C)cc1)Sc1ccc(C)cc1` (stereo not drawn) here?
A: 83 µM (inactive)

Q: And the GI50 (CAKI-1)?
A: 32.2 µM (inactive)

Q: And the GI50 (COLO 205)?
A: 42.2 µM (inactive)

Q: And the GI50 (DU-145)?
A: 59.2 µM (inactive)

Q: What about the GI50 (HCC 2998) of the same compound?
A: 31.5 µM (inactive)

Q: And the GI50 (HOP-62)?
A: 54.2 µM (inactive)

Q: What about the GI50 (KM12) of the same compound?
A: 44.2 µM (inactive)

Q: And the GI50 (MDA-MB-231)?
A: 77.4 µM (inactive)

Q: And the GI50 (MDA-MB-435)?
A: 33.9 µM (inactive)

Q: What about the GI50 (MOLT-4) of the same compound?
A: 24.9 µM (inactive)

Q: And the GI50 (NCI-H460)?
A: 56.4 µM (inactive)

Q: What about the GI50 (OVCAR-3) of the same compound?
A: 55.5 µM (inactive)

Q: And the GI50 (PC-3)?
A: 33.3 µM (inactive)

Q: And the GI50 (SF-539)?
A: > 100 µM (inactive)

Q: And the GI50 (SK-OV-3)?
A: > 100 µM (inactive)

Q: And the GI50 (SNB-19)?
A: 81.1 µM (inactive)

Q: What about the GI50 (SR) of the same compound?
A: 31.3 µM (inactive)

Q: And the GI50 (TK-10)?
A: > 100 µM (inactive)

Q: And the GI50 (UACC-257)?
A: 24.1 µM (inactive)

Q: What about the GI50 (UO-31) of the same compound?
A: 41.8 µM (inactive)

Q: How did the GI50 (BT-549) turn out when `CC(=N/N=C/c1ccccn1)/C(C)=N/N=C(C)/C(C)=N/N=C(C)/C(C)=N/N=C(C)/C(C)=N\N=C\c1ccccn1` was run?
A: > 100 µM (inactive)

Q: And the GI50 (CAKI-1)?
A: > 100 µM (inactive)

Q: What about the GI50 (COLO 205) of the same compound?
A: > 100 µM (inactive)

Q: What about the GI50 (DU-145) of the same compound?
A: > 100 µM (inactive)

Q: And the GI50 (HCC 2998)?
A: > 100 µM (inactive)

Q: What about the GI50 (HOP-62) of the same compound?
A: > 100 µM (inactive)

Q: What about the GI50 (KM12) of the same compound?
A: > 100 µM (inactive)

Q: What about the GI50 (MDA-MB-231) of the same compound?
A: > 100 µM (inactive)

Q: What about the GI50 (MDA-MB-435) of the same compound?
A: > 100 µM (inactive)

Q: And the GI50 (NCI-H460)?
A: > 100 µM (inactive)

Q: And the GI50 (OVCAR-3)?
A: > 100 µM (inactive)

Q: What about the GI50 (PC-3) of the same compound?
A: > 100 µM (inactive)

Q: What about the GI50 (SF-539) of the same compound?
A: > 100 µM (inactive)

Q: What about the GI50 (SK-OV-3) of the same compound?
A: > 100 µM (inactive)

Q: What about the GI50 (SNB-19) of the same compound?
A: > 100 µM (inactive)

Q: What about the GI50 (SR) of the same compound?
A: > 100 µM (inactive)

Q: What about the GI50 (TK-10) of the same compound?
A: > 100 µM (inactive)

Q: What about the GI50 (UACC-257) of the same compound?
A: > 100 µM (inactive)

Q: And the GI50 (UO-31)?
A: > 100 µM (inactive)

Q: With `C=CCn1c(N)c(C#N)c(C#N)c1-c1ccccc1` as the compound, how does the GI50 (BT-549) read?
A: > 100 µM (inactive)

Q: And the GI50 (CAKI-1)?
A: > 100 µM (inactive)

Q: What about the GI50 (COLO 205) of the same compound?
A: > 100 µM (inactive)

Q: What about the GI50 (DU-145) of the same compound?
A: > 100 µM (inactive)

Q: What about the GI50 (HCC 2998) of the same compound?
A: > 100 µM (inactive)

Q: What about the GI50 (HOP-62) of the same compound?
A: > 100 µM (inactive)

Q: What about the GI50 (KM12) of the same compound?
A: > 100 µM (inactive)

Q: And the GI50 (MDA-MB-231)?
A: > 100 µM (inactive)

Q: What about the GI50 (MDA-MB-435) of the same compound?
A: > 100 µM (inactive)

Q: And the GI50 (MOLT-4)?
A: > 100 µM (inactive)

Q: And the GI50 (OVCAR-3)?
A: > 100 µM (inactive)

Q: And the GI50 (PC-3)?
A: > 100 µM (inactive)

Q: And the GI50 (SF-539)?
A: > 100 µM (inactive)

Q: And the GI50 (SK-OV-3)?
A: > 100 µM (inactive)

Q: And the GI50 (SNB-19)?
A: > 100 µM (inactive)

Q: And the GI50 (SR)?
A: > 100 µM (inactive)

Q: What about the GI50 (TK-10) of the same compound?
A: > 100 µM (inactive)

Q: What about the GI50 (UACC-257) of the same compound?
A: > 100 µM (inactive)

Q: What about the GI50 (UO-31) of the same compound?
A: > 100 µM (inactive)

Reference: ChEMBL document CHEMBL1201862, “PubChem BioAssay data set” (2004)
